Format in all cases: biochemical, influenza A(H3N2) virus
Assay [1] deals with A/Victoria/361/2011 NA with R150H (Q136, T148, H150, T439) (Influenza A virus, UniProt G9LQ08).
Assay [2] has as its target A/Victoria/361/2011 NA with Q136K (K136, T148, R150, T439) (Influenza A virus, UniProt G9LQ08, H150R/Q136K).
The target in assay [3] is A/Victoria/361/2011 NA with T439R (Q136, T148, R150, R439) (Influenza A virus, UniProt G9LQ08, H150R/T439R).
The target in assay [4] is A/Victoria/361/2011 NA with T148I (Q136, I148, R150, T439) (Influenza A virus, UniProt G9LQ08, H150R/T148I).

In the case of `CCC(CC)[C@H](NC(C)=O)[C@@H]1[C@H](O)[C@@H](C(=O)O)C[C@H]1N=C(N)N` [Peramivir, peramivir], the IC50 in assay [1] amounted to 0.08 nM; in assay [2], 0.56 nM; in assay [3], 0.24 nM; in assay [4], 0.09 nM. The IC50 fold-change is on record as 0.08 ± 0.01 (1) fold in assay [1], 0.56 ± 0.09 (8) fold in assay [2], 0.24 ± 0.04 (3) fold in assay [3] and 0.09 ± 0.01 (1) fold in assay [4].

The values above are taken from publication PMC10549826 (Antiviral research, 2023).
